In patent publication US20240285672A1, “BETA-GLUCAN FOR PREVENTING AND/OR TREATING FIBROSIS AND RELATED DISEASES” (GN Corporation Co Ltd, priority 2021, published 2024):

How the values were obtained:
Format in all cases: in vivo, C57BL/6J mice
[1] = system: STAM mouse model of non-alcoholic steatohepatitis; assay: HE staining, NAFLD Activity Score (F18S study); conditions: STAM mice liver
Method: For HE staining, sections were cut from paraffin blocks of liver tissue prefixed in Bouin's solution and stained with Lillie-Mayer's Hematoxylin (Muto Pure Chemicals Co., Ltd., Japan) and eosin solution (Wako Pure Chemical Industries). The NAFLD Activity Score (NAS) was calculated according to the criteria of Kleiner (Kleiner D E. Et al., Hepatology, 2005; 41:1313), as shown in Table 2. For NAS scoring, bright field images of HE-stained sections were captured using a digital camera (DFC295; Leica, Germany) at 50- and 200-fold magnifications. Steatosis score in 1 section/mouse (representative 1 field at 50-fold magnification), inflammation score in 1 section/mouse (representative 1 field around the central vein at 200-fold magnification) and ballooning score in 1 section/mouse (representative 1 field around the central vein at 200-fold magnification) were estimated.

[2] = system: STAM mouse model of non-alcoholic steatohepatitis; assay: Sirius red staining of liver sections, fibrosis area (F18S study); conditions: STAM mice liver, x200
Method: To visualize collagen deposition, Bouin's fixed liver sections were stained using picro-Sirius red solution (Waldeck, Germany). Briefly, sections were deparaffinized and hydrophilized with xylene, 100-70% alcohol series and RO water, and then treated with 0.03% picro-Sirius red solution (Cat No.: 1A-280) for 60 minutes. After washing with 0.5% acetic acid solution and RO water, stained sections were dehydrated and cleared with 70-100% alcohol series and xylene, then sealed with Entellan® new (Merck, Germany) and used for observation.
For quantitative analysis of the fibrosis area and inflammation area, bright field images of Sirius red-stained and F4/80-immunostained sections were captured around the central vein using a digital camera (DFC295; Leica, Germany) at 200-fold magnification, and the positive areas in 5 fields/section were measured using ImageJ software (National Institute of Health, USA).

[3] = Plasma ALT in STAM mice (F18S study); conditions: at 9 weeks of age
Method: At study termination, non-fasting blood was collected through direct cardiac puncture using pre-cooled syringes. The collected blood was transferred in pre-cooled polypropylene tubes with anticoagulant (Novo-Heparin) and stored on ice until centrifugation. The blood samples were centrifuged at 1,000×g for 15 minutes at 4° C. The supernatant was collected and stored at −80° C. for biochemistry and evaluation.
Plasma ALT levels were measured by FUJI DRI-CHEM 7000 (Fujifilm Corporation).

[4] = system: gut microbiota; assay: Gut microbiome analysis of fecal samples, 16S rRNA sequencing (STAM mice)
Text: Frequency: Fecal samples were collected at the 6 weeks of age (before administration) and 9 weeks of age (before sacrifice).
Procedure: At 6 weeks of age, fecal samples were collected from each mouse by clean catch method. Handle animals with clean gloves sterilized with 70% ethanol. A sterile petri dish was placed on the bench. Gently massage the abdomen, position the bottom of mouse over a fresh petri dish, and collect 1-2 fecal pellets. At sacrifice, fecal samples were aseptically collected from cecum. The tubes with feces were placed on ice immediately. These tubes were snap frozen in liquid nitrogen and stored at −80° C. for shipping.
In this analysis, the 16S rRNA sequence data acquired by the next-generation sequencer from the fecal […] was used to perform community analysis using the QIIME2 program for microbial community analysis. The raw read data in FASTQ format output from the next-generation sequencer was trimmed to remove adapter sequences and low QV regions that may be included in the data. Cutadapt was used to remove adapter sequences from DNA sequencing reads. Trimmomatic was used as read trimming tool for Illumina NGS data. The adapter sequence was trimmed using the adapter trimming program “cutadapt” if the Trimming of the region at the end of the read sequence overlapped the corresponding sequence by at least one base (mismatch tolerance: 20%). […]

CCCc1nc2c(C)cc(-c3nc4ccccc4n3C)cc2n1Cc1ccc(-c2ccccc2C(=O)O)cc1 [Telmisartan]
NAS average score ([1]; HE staining): 2.625
NAS compared with the other groups ([1]; HE staining): significantly lesser score
Ballooning and steatosis score ([1]; compared with the vehicle): decreased most
Sirius red average positive stained area [2]: 0.59
Plasma ALT levels (Mean) [3]: 36 U/L
decrease in firmicutes and increase in Bacteroides ([4]; post-intervention, compared to all other groups): highest
Proteobacteria ([4]; pre vs post-intervention): increased
